Data from patent US20230044268A1, “AN IMPROVED PROCESS FOR PREPARATION OF LIRAGLUTIDE” (SHILPA MEDICARE LIMITED, priority 2019, published 2023).

Test: storage stability of liraglutide obtained by the present process
Format: physicochemical
Details: storage of the isolated product; conditions not given
Text: The present invention also relates to a process for the preparation of liraglutide, which is substantially pure having a purity of greater or equal to 99.5% and meeting the ICH guidelines. Further, the liraglutide obtained as per the present process is found devoid of any other process related impurities and is adequately stable to handle and store for longer time (at least up to more than 6 months) without any significant or measurable change in its morphology and physicochemical characteristics.

stable to handle and store without any significant or measurable change in morphology and physicochemical characteristics: more than 6 months
Substance: Liraglutide
